In EP0886648B1 (ORTHO PHARMACEUTICAL CORPORATION, priority 1995, dated 1996):
Like-named read-outs stand apart in the source and are kept apart here. Positions of bridges follow the written chain, without caps; N, C: chain ends. Residues, ends and D or L forms follow the SMILES beside them. Chains are numbered I, II in the order given. No end group written: not given here.

Assays:
Female BDF1 mice = assay: polycythemic exhypoxic mouse bioassay; format: in vivo; settings: approximate equivalency
Experimental: Female BDF1 mice (18-20 gms) are subjected to a conditioning cycle (in hypobaric chambers) of 18 hrs. at 0.40 ± 0.02 atm. and 6 hrs. at ambien pressure for a period of 14 days.
Mice are maintained at ambient pressure for 72 hrs prior to administration of r-HuEPO or test samples. Test samples or r-HuEPO standard are diluted for injection into conditioned mice. The vehicle consists of: PBS containing 0.1 % BSA (w/v). For each dilution, 0.5 ml is administered subcutaneously into each of 10 mice. ^59Fe is administered 48 hrs. later. Blood samples are taken 48 hrs. following administration of ^59Fe. Hematocrits and radioactivity measurements are determined for each sample. Dose range and results (two different assays) are set forth in Table 23 and Figures 17A-17C, infra.

FDCP-1/hEPO-R = settings: for increase in potency over the parental peptide: EC50 of dimer vs GGTYSCHFGPLTWVCKPQGG
Experimental: One assay utilized FDCP-1, a growth factor dependent murine multi-potential primitive hematopoietic progenitor cell line (see, e.g.. Dexter et al. (1980) J. Exp. Med. 152:1036-1047), as the parental cell line. This cell line can proliferate, but not differentiate, when supplemented with WEHI3-conditioned media (a medium that contains IL-3, ATCC number T1B68).
In brief, the cells are grown to half stationary density in the presence of the necessary growth factors. The cells are then washed in PBS and starved for 16-24 hours in whole media without the growth factors. After determining the viability of the cells, stock solutions (in whole media without the growth factors) are made to give about 10^5 cells per 50 microliters. […] Cells (50 microliters) are added to each well and the cells are incubated 24-48 hours, at which point the negative controls should die or be quiescent. Cell proliferation is then measured by techniques known in the art, such as an MTT assay which correlates with ^3H-thymidine incorporation as an indication of cell proliferation (see, Mosmann (1983) J. Immunol. Methods 65:55).
In addition, this peptide was preincubated with streptavidin in serum-free HEPES-buffered RPMI at a 4:1 molar ratio, as above. The complex was tested for stimulation of cell proliferation in an FDCP-1/hEPO-R bioassay alongside free […] (Ahx-biotin)) and the unbiotinylated parental peptide, i.e., […].

PIG-tailed EPO-R = target: T1, PIG-tailed EPO-R (Homo sapiens, UniProt P19235); assay: radioligand competition binding assay against PIG-tailed EPO-R immobilized on mAb179
T1 construct: comprised the extracellular domain of the EPO-receptor and was produced in recombinant host cells; thrombin cleavage site (internal); made in house
T1 sequence (P19235 25-250 limits assumed): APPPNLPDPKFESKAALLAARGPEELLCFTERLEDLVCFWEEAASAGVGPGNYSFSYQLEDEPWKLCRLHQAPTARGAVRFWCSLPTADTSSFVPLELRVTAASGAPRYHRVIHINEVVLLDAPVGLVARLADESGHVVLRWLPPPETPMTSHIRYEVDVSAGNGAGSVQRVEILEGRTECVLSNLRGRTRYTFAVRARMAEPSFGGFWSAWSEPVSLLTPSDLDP
Excerpt: The immobilized receptor used in the panning and ELISA procedures comprised the extracellular domain of the EPO-receptor and was produced in recombinant host cells. This receptor molecule can be produced in a variety of different forms and host cells. One useful form is constructed with a signal peptide for protein secretion and for glycophospholipid membrane anchor attachment (this form of anchor attachment is called "PIG-tailing;" see, Caras and Weddell, 3 March. 1989, Science 243:1196-1198; and Lin et al., 10 Aug. 1990, Science 249:677-679, each of which is incorporated herein by reference). This system allows for cleavage of the receptor from the surface of the cells expressing the receptor and collection of the cleaved receptor quite easily. Preferably, a protease cleavage site, such as a thrombin cleavage site, is inserted between the HPAP epitope of the PIG-tailed receptor and the receptor itself.
The recombinant receptor protein was immobilized using the following methodology. Microtiter plates were coated within an and-receptor antibody and the wells which were to contain the immobilized receptor were treated with bovine serum albumin (BSA) to block non-specific binding. The PIG-tailed receptor having a thrombin cleavage site was added to the coated wells of the microtiter plate, which were then washed to remove unbound receptor.
IC50s were calculated for several of the peptides falling within the general motifs described above. (Each of these peptides were independently synthesized and are C-terminally amidated, but could be easily prepared as the free carboxy acid or as an ester or other carboxy amide.)
This peptide was incubated with streptavidin in PBS at a 4:1 molar ratio at room temperature for one hour. Following this, the complex was introduced into the PIG-tailed EPO-R binding assay for IC50 determination. Peptide that had not been complexed to streptavidin was also run in the same experiment. […] Since this comparison was made using the free peptide concentrations and not the effective complex concentration (theoretically 4-fold lower), the effect will be even greater.
Figures 13 and 14 show the in vitro EPOR binding and biological activities of the dimer. The affinity of the dimer was tested against the PIG-tailed EPOR immobilized on mAb179 in strip wells.

[1] = system: FDC-P1/ER (murine receptor); assay: peptide dependent growth of EPO-responsive cell line FDC-P1/ER (thymidine incorporation); format: cell-based
Experimental: • a. […] Cell Proliferation Assay: • i. […] Peptide is added to each well in triplicate.

[2] = target: T2, extracellular domain of the human erythropoietin receptor (EPO binding protein, EBP) (Homo sapiens, UniProt P19235); assay: immobilized EBP based [125I]EPO competition binding assay
T2 construct: made in house
T2 sequence (P19235 25-250 limits assumed): T1 sequence (P19235 25-250 limits assumed)
Experimental: The mixture was rocked gently for 30 minutes at room temperature, and the beads were allowed to settle for 1 hour at room temperature. The supernatant was removed and retained, and the beads were washed twice with 20 ml of coupling buffer.
Competitive binding analysis assays of candidate peptides were performed as outlined below. Individual peptides were dissolved in DMSO to prepare a stock solution of 1 mM. […] Initial assay points with no added peptide were included in each assay to determine total binding. Binding mixtures were incubated overnight at room temperature with gentle rocking. The beads were then collected using Micro-columns (Isolab, Inc., Akron, Ohio) and washed with 3 mL of wash buffer.

[3] = free peptide, C-terminally amidated, read-out: IC50

In the case of TIAQYICYMGPETWECRPSPKA [AF11654], the “Amount of Peptide Equivalent to 0.025 units of EPO” value (Female BDF1 mice) is reported as 11 to 21 nmol.
In the case of `CC(C)C[C@@H]1NC(=O)[C@@H]2CCCN2C(=O)CNC(=O)[C@H](Cc2ccccc2)NC(=O)[C@H](Cc2c[nH]cn2)NC(=O)[C@@H](NC(=O)[C@H](CO)NC(=O)[C@H](Cc2ccc(O)cc2)NC(=O)[C@@H](NC(=O)CNC(=O)CN)[C@@H](C)O)CSSC[C@@H](C(=O)N[C@@H](CCCCN)C(=O)N2CCC[C@H]2C(=O)N[C@@H](CCC(N)=O)C(=O)NCC(=O)NCC(=O)N[C@@H](CO)C(=O)N[C@@H](CO)C(=O)N[C@@H](CCCCNC(=O)CCCCCNC(=O)CCCC[C@@H]2SC[C@@H]3NC(=O)N[C@@H]32)C(N)=O)NC(=O)[C@H](C(C)C)NC(=O)[C@H](Cc2c[nH]c3ccccc23)NC(=O)[C@H]([C@@H](C)O)NC1=O` [AF11505] (HELM PEPTIDE1{G.G.T.Y.S.C.H.F.G.P.L.T.W.V.C.K.P.Q.G.G.S.S.K.[am]}|PEPTIDE2{[O=C1N[C@H]2[C@H](CS[C@H]2CCCCC(=O)[*:2])N1].[O=C(CCCCCN[*:1])[*:2]]}$PEPTIDE1,PEPTIDE2,23:R3-2:R2|PEPTIDE1,PEPTIDE1,6:R3-15:R3$$$V2.0; N-terminus and C-terminus assumed; bridges inferred), the EPO-ED50 (FDCP-1/hEPO-R; free peptides) is reported as “approximately 1 µM”.
With `CC(C)C[C@H](NC(=O)CNC(=O)CN)C(=O)N[C@@H](Cc1ccc(O)cc1)C(=O)N[C@@H](CC(C)C)C(=O)N[C@H]1CSSC[C@@H](C(=O)NCC(=O)N[C@@H](Cc2ccc(O)cc2)C(=O)N[C@@H](CCCCN)C(=O)NCC(=O)NCC(N)=O)NC(=O)[C@H](CC(=O)O)NC(=O)[C@H](Cc2c[nH]c3ccccc23)NC(=O)[C@H]([C@@H](C)O)NC(=O)[C@H](C(C)C)NC(=O)[C@@H]2CCCN2C(=O)CNC(=O)[C@H](Cc2ccccc2)NC(=O)[C@H](CCCNC(=N)N)NC1=O` (HELM PEPTIDE1{G.G.L.Y.L.C.R.F.G.P.V.T.W.D.C.G.Y.K.G.G.[am]}$PEPTIDE1,PEPTIDE1,6:R3-15:R3$$$V2.0; N-terminus assumed) the IC50 (PIG-tailed EPO-R; [3]) was 1670 nM.
In the case of “I: GGTYSCHFGPLTWVCKPQGGK-NH2 / II: GGTYSCHFGPLTWVCKPQGG (disulfide I:6-I:15, II:6-II:15 (inferred); amide I:21-II:C (inferred); C-terminus assumed) [AF12080]”, the “Amount of Peptide Equivalent to 0.025 units of EPO” value (Female BDF1 mice) is reported as 0.035 nmol, the “increase over the value for the parental peptide” value (PIG-tailed EPO-R; affinity vs GGTYSCHFGPLTWVCKPQGG) is reported as 200 fold and the “increase over the streptavidin complex” value (PIG-tailed EPO-R; affinity vs GGTYSCHFGPLTWVCKPQGGSSK (Ahx-biotin)-streptavidin complex) is reported as 5 fold. For the same molecule, the “increase in potency over the parental peptide” value (FDCP-1/hEPO-R) was “approximately 20 fold” and the “increase in potency over the parental peptide” value (FDCP-1/hEPO-R; listed as dimeric peptide analog of GGTYSCHFGPLTWVCKPQGG) was 20 fold.
With `CC(C)C[C@@H]1NC(=O)[C@@H]2CCCN2C(=O)CNC(=O)[C@H](Cc2ccccc2)NC(=O)[C@H](Cc2c[nH]cn2)NC(=O)[C@@H](NC(=O)[C@H](CO)NC(=O)[C@H](Cc2ccc(O)cc2)NC(=O)[C@@H](NC(=O)CNC(=O)CN)[C@@H](C)O)CSSC[C@@H](C(=O)N[C@@H](CCCCN)C(=O)N2CCC[C@H]2C(=O)N[C@@H](CCC(N)=O)C(=O)NCC(=O)NCC(N)=O)NC(=O)[C@H](C(C)C)NC(=O)[C@H](Cc2c[nH]c3ccccc23)NC(=O)[C@H]([C@@H](C)O)NC1=O` [RWJ 61233] (HELM PEPTIDE1{G.G.T.Y.S.C.H.F.G.P.L.T.W.V.C.K.P.Q.G.G.[am]}$PEPTIDE1,PEPTIDE1,6:R3-15:R3$$$V2.0) the EPO-ED50 [1] was 100 nM, the IC50 (PIG-tailed EPO-R; equilibrium competition binding assay, strip wells, read-out: affinity) was 200 nM and the IC50 (PIG-tailed EPO-R; [3]) was 237 nM. For the same molecule, the EC50 (FDCP-1/hEPO-R) was 400 nM and the IC50 [2] was 5000 nM.
In the case of `CC[C@H](C)[C@@H]1NC(=O)[C@@H]2CCCN2C(=O)CNC(=O)[C@H](Cc2ccccc2)NC(=O)[C@H](Cc2c[nH]cn2)NC(=O)[C@@H](NC(=O)[C@H](CCSC)NC(=O)[C@H](Cc2ccc(O)cc2)NC(=O)[C@H](CC(N)=O)NC(=O)CNC(=O)[C@@H](N)C(C)C)CSSC[C@@H](C(=O)N[C@@H](CCCNC(=N)N)C(=O)N2CCC[C@H]2C(=O)NCC(=O)NCC(=O)NCC(N)=O)NC(=O)[C@H](C(C)C)NC(=O)[C@H](Cc2c[nH]c3ccccc23)NC(=O)[C@H]([C@@H](C)O)NC1=O` (HELM PEPTIDE1{V.G.N.Y.M.C.H.F.G.P.I.T.W.V.C.R.P.G.G.G.[am]}$PEPTIDE1,PEPTIDE1,6:R3-15:R3$$$V2.0; N-terminus assumed), the IC50 (PIG-tailed EPO-R; [3]) is reported as 420 nM.
For `CC[C@H](C)[C@@H]1NC(=O)[C@@H]2CCCN2C(=O)CNC(=O)[C@H](CCSC)NC(=O)[C@H](CCCNC(=N)N)NC(=O)[C@@H](NC(=O)[C@H](C)NC(=O)[C@H](Cc2ccc(O)cc2)NC(=O)[C@@H](NC(=O)CNC(=O)CN)C(C)C)CSSC[C@@H](C(=O)N[C@@H](CO)C(=O)N2CCC[C@H]2C(=O)N[C@@H](CC(C)C)C(=O)NCC(=O)NCC(N)=O)NC(=O)[C@H](C(C)C)NC(=O)[C@H](Cc2c[nH]c3ccccc23)NC(=O)[C@H]([C@@H](C)O)NC1=O` (HELM PEPTIDE1{G.G.V.Y.A.C.R.M.G.P.I.T.W.V.C.S.P.L.G.G.[am]}$PEPTIDE1,PEPTIDE1,6:R3-15:R3$$$V2.0; N-terminus assumed), the IC50 (PIG-tailed EPO-R; [3]) was 352 nM.
Work on `CSCC[C@@H]1NC(=O)[C@H](CCCNC(=N)N)NC(=O)[C@@H](NC(=O)[C@H](Cc2c[nH]cn2)NC(=O)[C@H](Cc2ccc(O)cc2)NC(=O)[C@H](CC(=O)O)NC(=O)CNC(=O)CN)CSSC[C@@H](C(=O)N[C@@H](CCCCN)C(=O)N2CCC[C@H]2C(=O)N[C@@H](CC(C)C)C(=O)NCC(=O)NCC(N)=O)NC(=O)[C@H](C(C)C)NC(=O)[C@H](Cc2c[nH]c3ccccc23)NC(=O)[C@H]([C@@H](C)O)NC(=O)[C@H](CC(C)C)NC(=O)[C@@H]2CCCN2C(=O)CNC1=O` (HELM PEPTIDE1{G.G.D.Y.H.C.R.M.G.P.L.T.W.V.C.K.P.L.G.G.[am]}$PEPTIDE1,PEPTIDE1,6:R3-15:R3$$$V2.0; N-terminus assumed) yielded an IC50 (PIG-tailed EPO-R; [3]) of 179 nM.
Work on VGNYMAHMGPITWVCRPGG-NH2 yielded an IC50 (PIG-tailed EPO-R; [3]) of 67000 nM.
